Columns and labels:
[1] = target: hOXIR (orexin-1 receptor) (Homo sapiens, UniProt O43613); test: FLIPR Ca2+ Flux Assay, orexin-1 receptor (hOXIR FLIPR); format: cell-based; settings: CHO cells expressing the orexin-1 receptor (method text: rat; table head: hOXIR); agonist 70 pM Ala-6,12 human orexin-A
Experimental: (§1) The utility of the compounds in accordance with the present invention as orexin receptor OX1R and/or OX2R antagonists may be readily determined without undue experimentation by methodology well known in the art, including the “FLIPR Ca^2+ Flux Assay” (Okumura et al., Biochem. Biophys. Res. Comm. 280:976-981, 2001). In a typical experiment the OX1 and OX2 receptor antagonistic activity of the compounds of the present invention was determined in accordance with the following experimental method. For intracellular calcium measurements, Chinese hamster ovary (CHO) cells expressing the rat orexin-1 receptor or the human orexin-2 receptor, are grown in Iscove's modified DMEM containing 2 mM L-glutamine, […], 1% hypoxanthine-thymidine supplement, 100 U/ml penicillin, 100 μg/ml streptomycin and 10% heat-inactivated fetal calf serum (FCS). The cells are seeded at 20,000 cells/well into Becton-Dickinson black 384-well clear bottom sterile plates coated with poly-D-lysine. All reagents were from GIBCO-Invitrogen Corp. The seeded plates are incubated overnight at 37° C. and 5% CO2. Ala-6,12 human orexin-A as the agonist is prepared as a 1 mM stock solution in 1% bovine serum albumin (BSA) and diluted in assay buffer (HBSS containing 20 mM HEPES, 0.1% BSA and 2.5 mM probenecid, pH7.4) for use in the assay at a final concentration of 70 pM. Test compounds are prepared as 10 mM stock solution in DMSO, then diluted in 384-well plates, first in DMSO, then assay buffer. On the day of the assay, cells are washed 3 times with 100 μl assay buffer and then incubated for 60 min (37° C., 5% CO2) in 60 μl assay buffer containing 1 μM Fluo-4AM ester, 0.02% pluronic acid, and 1% BSA. The dye loading solution is then aspirated and cells are washed 3 times with 100 μl assay buffer. 30 μl of that same buffer is left in each well. Within the Fluorescent Imaging Plate Reader (FLIPR, Molecular Devices), test compounds are added to the plate in a volume of 25 μl, incubated for 5 min and finally 25 μl of agonist is added. Fluorescence is measured for each well at 1 second intervals for 5 minutes and the height of each fluorescence peak is compared to the height of the fluorescence peak induced by 70 pM Ala-6,12 orexin-A with buffer in place of antagonist. For each antagonist, IC50 value (the concentration of compound needed to inhibit 50% of the agonist response) is determined. Alternatively, compound potency can be assessed by a radioligand binding assay (described in Bergman et. al. Bioorg. Med. Chem. Lett. 2008, 18, 1425-1430) in which the inhibition constant (Ki) is determined in membranes prepared from CHO cells expressing either the OX1 or OX2 receptor. The intrinsic orexin receptor antagonist activity of a compound which may be used in the present invention may be determined by these assays.

human orexin-2 receptor = human orexin-2 receptor (Homo sapiens (Human), UniProt O43614); test: FLIPR Ca2+ Flux Assay, orexin-2 receptor (hOX2R FLIPR); format: cell-based; settings: CHO cells expressing the human orexin-2 receptor; agonist 70 pM Ala-6,12 human orexin-A
human orexin-2 receptor, sequence (O43614 whole entry): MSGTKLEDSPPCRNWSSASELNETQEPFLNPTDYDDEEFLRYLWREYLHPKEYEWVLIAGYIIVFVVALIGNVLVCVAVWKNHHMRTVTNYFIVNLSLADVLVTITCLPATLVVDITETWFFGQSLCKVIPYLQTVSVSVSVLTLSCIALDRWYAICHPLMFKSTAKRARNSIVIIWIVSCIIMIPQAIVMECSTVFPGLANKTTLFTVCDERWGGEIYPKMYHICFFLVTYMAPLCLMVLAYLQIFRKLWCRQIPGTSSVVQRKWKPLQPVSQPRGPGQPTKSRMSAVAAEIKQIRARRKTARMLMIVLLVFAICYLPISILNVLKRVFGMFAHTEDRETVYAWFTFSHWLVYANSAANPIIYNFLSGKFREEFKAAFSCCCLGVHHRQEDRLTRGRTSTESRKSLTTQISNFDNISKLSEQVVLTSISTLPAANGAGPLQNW
Experimental: as §1

| SMILES | IC50 [1] | IC50 (human orexin-2 receptor) |
| --- | --- | --- |
| Cc1nc(-c2cc(F)ccc2C(=O)N2C[C@H](n3ncc(C(C)(C)O)n3)CC[C@H]2C)no1 [Example 40, 2-{2-[(3R,6R)-1-{[4-fluoro-2-(5-methyl-1,2,4-oxadiazol-3-yl)phenyl]carbonyl}-6-methylpiperidin-3-yl]-2H-1,2,3-triazol-4-yl}propan-2-ol] | > 10000 nM | 86.7 nM |
| C[C@@H]1CC[C@@H](n2ncc(C(C)(C)O)n2)CN1C(=O)c1cccc(F)c1-n1nccn1 [Example 31, 2-{2-[(3R,6R)-1-{[3-fluoro-2-(2H-1,2,3-triazol-2-yl)phenyl]carbonyl}-6-methylpiperidin-3-yl]-2H-1,2,3-triazol-4-yl}propan-2-ol] | > 10000 nM | 36.4 nM |
| C[C@@H]1CC[C@@H](n2cc([C@@H](O)C(F)(F)F)cn2)CN1C(=O)c1ccccc1-n1nccn1 [Example 102, (1R)-2,2,2-Trifluoro-1-{1-[(3R,6R)-6-methyl-1-{[2-(2H-1,2,3-triazol-2-yl)phenyl]carbonyl}piperidin-3-yl]-1H-pyrazol-4-yl}ethanol] | > 10000 nM | 124 nM |
| CCOc1ncccc1C(=O)N1C[C@H](n2cc(C(C)(C)O)cn2)CC[C@H]1C [Example 89, 2-(1-{(3R,6R)-1-[(2-Ethoxypyridin-3-yl)carbonyl]-6-methylpiperidin-3-yl}-1H-pyrazol-4-yl)propan-2-ol] | > 10000 nM | 283 nM |
| C[C@@H]1CC[C@@H](n2ncc(C(C)(C)O)n2)CN1C(=O)c1ccc(F)cc1-n1nccn1 [Example 39, 2-{2-[(3R,6R)-1-{[4-fluoro-2-(2H-1,2,3-triazol-2-yl)phenyl]carbonyl}-6-methylpiperidin-3-yl]-2H-1,2,3-triazol-4-yl}propan-2-ol] | > 10000 nM | 27.1 nM |
| C[C@@H]1CC[C@@H](n2ncc(C(C)(C)O)n2)CN1C(=O)c1ccccc1[C@@H]1CC1(F)F [Example 22, 2-{2-[(3R,6R)-1-({2-[(1S)-2,2-difluorocyclopropyl]phenyl}carbonyl)-6-methylpiperidin-3-yl]-2H-1,2,3-triazol-4-yl}propan-2-ol] | 733 nM | 8.5 nM |
| CCCc1ccccc1C(=O)N1C[C@H](n2cc(C(C)(C)O)cn2)CC[C@H]1C [Example 76, 2-(1-{(3R,6R)-6-Methyl-1-[(2-propylphenyl)carbonyl]piperidin-3-yl}-1H-pyrazol-4-yl)propan-2-ol] | > 10000 nM | 52.3 nM |
| Cc1nc(-c2c(F)cccc2C(=O)N2C[C@H](n3ncc(C(C)(C)O)n3)CC[C@H]2C)no1 [Example 37, 2-{2-[(3R,6R)-1-{[3-fluoro-2-(5-methyl-1,2,4-oxadiazol-3-yl)phenyl]carbonyl}-6-methylpiperidin-3-yl]-2H-1,2,3-triazol-4-yl}propan-2-ol] | > 10000 nM | 75.2 nM |
| C[C@@H]1CC[C@@H](n2ncc(C(C)(C)O)n2)CN1C(=O)c1ccccc1C1CC1 [Example 6, (2-Cyclopropylphenyl)((2R,5R)-5-(4-(2-hydroxypropan-2-yl)-2H-1,2,3-triazol-2-yl)-2-methylpiperidin-1-yl)methanone] | 2460 nM | 14.9 nM |
| C[C@@H]1CC[C@@H](n2ncc(C(C)(C)O)n2)CN1C(=O)c1cc(F)ccc1-n1nccn1 [Example 38, 2-{2-[(3R,6R)-1-{[5-fluoro-2-(2H-1,2,3-triazol-2-yl)phenyl]carbonyl}-6-methylpiperidin-3-yl]-2H-1,2,3-triazol-4-yl}propan-2-ol] | > 10000 nM | 27.5 nM |
| Cc1nc(-c2ccc(F)cc2C(=O)N2C[C@H](n3ncc(C(C)(C)O)n3)CC[C@H]2C)no1 [Example 30, (5-Fluoro-2-(5-methyl-1,2,4-oxadiazol-3-yl)phenyl)((2R,5R)-5-(4-(2-hydroxypropan-2-yl)-2H-1,2,3-triazol-2-yl)-2-methylpiperidin-1-yl)methanone] | > 10000 nM | 138 nM |
| C[C@@H]1CC[C@@H](n2ncc(C(C)(C)O)n2)CN1C(=O)c1ccccc1-n1nccn1 [Example 25, (2-(2H-1,2,3-triazol-2-yl)phenyl)((2R,5R)-5-(4-(2-hydroxypropan-2-yl)-2H-1,2,3-triazol-2-yl)-2-methylpiperidin-1-yl)methanone] | 594 nM | 7.5 nM |
| CC(C)Oc1ccccc1C(=O)N1C[C@H](n2ncc(C(C)(C)O)n2)CC[C@H]1C [Example 17, ((2R,5R)-5-(4-(2-Hydroxypropan-2-yl)-2H-1,2,3-triazol-2-yl)-2-methylpiperidin-1-yl)(2-isopropoxyphenyl)methanone] | 3680 nM | 16.1 nM |
| Cc1nn([C@@H]2CC[C@@H](C)N(C(=O)c3ccc(F)cc3-n3nccn3)C2)nc1C(C)(C)O [Example 72, 2-{2-[(3R,6R)-1-{[4-Fluoro-2-(2H-1,2,3-triazol-2-yl)phenyl]carbonyl}-6-methylpiperidin-3-yl]-5-methyl-2H-1,2,3-triazol-4-yl}propan-2-ol] | 1290 nM | 15.2 nM |
| C[C@@H]1CC[C@@H](n2cc(C(C)(C)O)cn2)CN1C(=O)c1ccccc1OC(F)F [Example 84, 2-{1-[(3R,6R)-1-{[2-(Difluoromethoxy)phenyl]carbonyl}-6-methylpiperidin-3-yl]-1H-pyrazol-4-yl}propan-2-ol] | > 10000 nM | 464 nM |
| COCc1ccccc1C(=O)N1C[C@H](n2ncc(C(C)(C)O)n2)CC[C@H]1C [Example 56, 2-{2-[(3R,6R)-1-{[2-(methoxymethyl)phenyl]carbonyl}-6-methylpiperidin-3-yl]-2H-1,2,3-triazol-4-yl}propan-2-ol] | > 10000 nM | 308 nM |
| C[C@@H]1CC[C@@H](n2ncc(C(C)(C)O)n2)CN1C(=O)c1cccnc1C1CC1 [Example 60, 2-(2-{(3R,6R)-1-[(2-Cyclopropylpyridin-3-yl)carbonyl]-6-methylpiperidin-3-yl}-2H-1,2,3-triazol-4-yl)propan-2-ol] | > 10000 nM | 608 nM |
| Cc1nn([C@@H]2CC[C@@H](C)N(C(=O)c3cccnc3OCC(F)F)C2)nc1C(C)(C)O [Example 64, 2-{2-[(3R,6R)-1-{[2-(2,2-Difluoroethoxy)pyridin-3-yl]carbonyl}-6-methylpiperidin-3-yl]-5-methyl-2H-1,2,3-triazol-4-yl}propan-2-ol] | 2990 nM | 8.8 nM |
| CC(C)c1ccccc1C(=O)N1C[C@H](n2cc(C(C)(C)O)cn2)CC[C@H]1C [Example 82, 2-{1-[(3R,6R)-6-Methyl-1-{[2-(1-methylethyl)phenyl]carbonyl}piperidin-3-yl]-1H-pyrazol-4-yl}propan-2-ol] | > 10000 nM | 347 nM |
| Cc1nn([C@@H]2CC[C@@H](C)N(C(=O)c3cccnc3OC(C)C)C2)nc1C(C)(C)O [Example 63, 2-{5-Methyl-2-[(3R,6R)-6-methyl-1-{[2-(1-methylethoxy)pyridin-3-yl]carbonyl}piperidin-3-yl]-2H-1,2,3-triazol-4-yl}propan-2-ol] | 3350 nM | 15.9 nM |
| C[C@@H]1CC[C@@H](n2cc(C(C)(O)C(F)(F)F)cn2)CN1C(=O)c1ccccc1-n1nccn1 (stereo partly drawn) [Example 104, 1,1,1-Trifluoro-2-{1-[(3R,6R)-6-methyl-1-{[2-(2H-1,2,3-triazol-2-yl)phenyl]carbonyl}piperidin-3-yl]-1H-pyrazol-4-yl}propan-2-ol] | 2010 nM | 13.4 nM |
